# Patent US8455240B2, “Use of thermophilic sulphate-reducing archaea for the implementation of a process for the degradation of hydrocarbons” (Institut de Recherche pour le Development (I.R.D.), priority 2005, dated 2013)
# Values joined by “and” are separate entries in the source; they are usually repeats but may differ in a detail not shown here. Equal entries are not always repeated. Marks after values point to notes of the source that are not given here.
# Legend:
# [1] = system: Archaeoglobus fulgidus DSM 4304; experiment: Monitoring of thiosulphate during the degradation of fatty acids by A. fulgidus; assay type: cell-based; settings: E1/E2 replicates; for thiosulphate, time 0: time 0 (Jul. 4, 2005), butyrate, valerate 5 mM, others 2 mM
# Experimental: (§1) The thiosulphate and sulphate assays are carried out by ion chromatography.
# (§2) The analyses are carried out with a chromatograph (Compact IC 761, Metrohm) equipped with: • A […] ion-exchange column (Metrosep A SUPP 1-250 (6.1005.300)), size 4.6*250 mm; • The eluent used is Na2CO3 at a concentration of 3 mmol/l, at a flow rate of 1 to 2.5 ml/min; ((→the flow rate varies during the analysis)) • A sample processor (Metrohm 838); • A conductimeter; • A computer where the results are recorded, integrated and analyzed by software (761 Compact IC, Metrohm). III.3.2. Operating Method
# (§3) The operating conditions are such that the temperature is 20° C. and the pressure is 5 MPa. The samples to be analyzed are filtered. The injection volume is 20 μl. The detection is of conductimetric electrochemical type with chemical suppression allowing elution gradients.
# (§4) Monitoring of thiosulphate during the degradation of fatty acids by A. fulgidus and by L-3
# strain L-3 [2] = experiment: Monitoring of thiosulphate during the degradation of fatty acids by L-3; assay type: cell-based, Archaeoglobus fulgidus CNCM I-3465 (strain L-3); settings: E1/E2 replicates; for thiosulphate, time 0: time 0 (Feb. 5, 2005)
# Experimental: as §1, §2, §3, §4
# A. fulgidus [3] = experiment: Complementary experiment: sulphate as electron acceptor instead of thiosulphate; assay type: cell-based, Archaeoglobus fulgidus
# Experimental: A first experiment was carried out with A. fulgidus for the purpose of studying the effect of sulphate as an electron acceptor instead of the thiosulphate used previously. […] This explains that at the bottom of the oceans where sulphate is abundant relative to thiosulphate which is in the minority, the phenomenon of DBT or HMN degradation cannot occur spontaneously.
# A. fulgidus [4] = experiment: Subculture on hydrocarbons, A. fulgidus (sulphide production); assay type: cell-based, Archaeoglobus fulgidus; settings: for ΔS tf-ti: final minus initial sulphide
# Experimental: (§5) Experimentally, 4 ml of Cord-Ruwish reagent comprising 50 mmol/l of HCl and 5 mmol/l of CuSO4 are added to 0.1 ml of sample. Copper sulphate (CuSO4) by reacting with hydrogen sulphide (H2S), forms a copper sulphide precipitate (CuS) after the reaction: CuSO4+H2S→CuS+H2SO4
# (§6) According to this method, the CuS is assayed by spectrophotometry at 480 nm. The readings are carried out against a blank constituted by 4 ml of Cord-Ruwish reagent.
# (§7) A subculture was carried out starting from the preceding experiment on naphthalene, DBT solubilized as previously in HMN, and on HMN alone, for the two strains studied.
# (§8) For this subculture, apart from the tests containing the hydrocarbon (DBT, naphthalene (Naph), […]), and seeded with the previously chosen inoculum, abiotic controls (negative controls) containing the substrate (hydrocarbon) but not inoculated were produced for the purpose of quantifying the sulphide production which could be due to chemical reactions between the different constituents of the medium. In these controls there was no development in the concentration of sulphide over a period of 20 days (Table 4).
# [5] = system: Archaeoglobus fulgidus (collection strain); experiment: Quantitative study of the degradation of hydrocarbons (DBT, HMN), collection strain; assay type: cell-based
# Experimental: Experiments were carried out in order to establish the stoichiometric equation of the degradation of hydrocarbons in the case of the collection strain only. Thus, the hydrocarbon concentrations were assayed at the initial and final time, like the thiosulphate concentrations. Moreover, the increase in the biomass was followed by the increase in the microbial population based on the most probable number method (MPN).
# In order to be able to quantify the hydrocarbons with precision, the thick rubber stoppers were covered with a Teflon film, an inert substance which avoids any loss of the hydrocarbon by absorption or adsorption.
# The hydrocarbons were added at a rate of: • for the DBT: 10 mg of DBT dissolved in 0.5 ml of HMN, 0.5 ml of this solution is added to the tests; • for the HMN: 6 μl of HMN/10 ml of culture medium.
# The tests prepared are inoculated with the preceding subculture.
# Archaeoglobus fulgidus = experiment: Screening for hydrocarbon degradation, A. fulgidus (sulphide production, Cord-Ruwish); assay type: cell-based
# Experimental: as §5, §6
# (§9) The study of the hydrocarbon degradation abilities is an experiment which requires a particularly long incubation. Thus, it was carried out in Bellco tubes sealed with thick rubber stoppers.
# (§10) For these experiments, tubes containing 10 ml of culture medium without substrate, are 10% inoculated, then the hydrocarbon is introduced by injection through the stopper.
# (§11) The hydrocarbons chosen are model molecules belonging to the different classes of hydrocarbons, namely: • hexadecane (CH3(CH2)14CH3, C16), a saturated linear aliphatic hydrocarbon; • hexadecene (CH3(CH2)13CHCH2, C16:1), an unsaturated linear aliphatic hydrocarbon of biogenic origin; • dibenzothiophene (DBT, C12H8S), a sulphur-containing aromatic hydrocarbon.
# (§12) The aliphatic hydrocarbons (C16; C16:1) are added to the corresponding tubes, at a rate of 0.04 ml/10 ml of culture medium. The aromatic hydrocarbons (DBT) are solubilized in 2,2,4,4,6,8,8-heptamethylnonane (HMN, C16H34) at a rate of 20 mg/ml of HMN, and 0.75 ml of this solution is injected into 10 ml of culture medium.
# (§13) 3 tubes were produced for each test and control. The growth of the strains was monitored indirectly by the production of sulphide.
# as §7
# strain L-3 [6] = experiment: Subculture on hydrocarbons, strain L-3 (sulphide production); assay type: cell-based, Archaeoglobus fulgidus CNCM I-3465 (strain L-3)
# Experimental: as §5, §6, §7, §8
# strain L-3 [7] = experiment: Screening for hydrocarbon degradation, strain L-3 (sulphide production, Cord-Ruwish); assay type: cell-based, Archaeoglobus fulgidus CNCM I-3465 (strain L-3); settings: for Count / OD 580 / H2S: choice of the inoculum for the subculture; for H2S: tubes of the screening; for ΔS tf-ti: final minus initial sulphide
# Experimental: as §5, §6, §9, §10, §11, §12, §13, §7
# [8] = choice of the inoculum for the subculture
smiles,measurement,setting,value
CCCCCCCC(=O)O [octanoate],"thiosulphate, end of May 2005",[1]; listed as C8 fatty acid,8.2 mM and 9.27 mM
same,"thiosulphate, end of May 2005","strain L-3 [2]; end of May 2005, listed as C8 fatty acid",9.56 and mM and 9.33 mM
CCCC(=O)O [butyrate],"thiosulphate, end of May 2005",[1],9.29 mM
same,"thiosulphate, time 0",[1],12.51 mM
same,"thiosulphate, time 0",strain L-3 [2],15.45 mM
CCCCCCCCCCCCCCCC(=O)O [palmitate],"thiosulphate, end of May 2005",[1],9.12 mM
same,"thiosulphate, time 0",[1],11.54 mM
same,"thiosulphate, time 0",strain L-3 [2],15.52 mM
"c1ccc2c(c1)sc1ccccc12 [DBT, dibenzothiophene]",microbial growth with sulphate as electron acceptor,A. fulgidus [3],no microbial growth
same,sulphide production (OD 480) 0 d,A. fulgidus [4]; 0 d,0.2 mM and 0.1 mM
same,sulphide production (OD 480) 8 d,A. fulgidus [4],1.3 mM and 1.1 mM and 1.2 mM
same,sulphide production (OD 480) 22 d,A. fulgidus [4]; 22 d,2.1 mM and 1.9 mM
same,ΔS tf-ti,A. fulgidus [4],3 mM and 3.1 mM and 3.2 mM
same,sulphide assay at the end of 75 days,[5],approximately 9.5 mM
same,sulphide production (OD 480) 0 d,"Archaeoglobus fulgidus; 0 d, aromatics solubilized in HMN",0.4 mM and 0.3 mM and 0.5 mM
same,sulphide production (OD 480) 10 d,Archaeoglobus fulgidus,0.6 mM and 0.8 mM and 0.7 mM
same,sulphide production (OD 480) 45 d,Archaeoglobus fulgidus,1.1 mM and 1.3 mM
same,"sulphide value in the hydrocarbon screening stage (ΔS45d, Table 1)",Archaeoglobus fulgidus; 45 days,≤ 1 mM
same,sulphide production (OD 480) 60 d,Archaeoglobus fulgidus,1.1 mM and 1.7 mM and 1.5 mM
same,Count,Archaeoglobus fulgidus; [8],9.4*10^7 Cells/ml and 8.33*10^7 Cells/ml and 7.22*10^7 Cells/ml
same,OD 580,Archaeoglobus fulgidus; [8],0.9801 and 1.424 and 0.9189
same,sulphide production (OD 480) 0 d,strain L-3 [6],0.3 mM and 0.2 mM
same,sulphide production (OD 480) 8 d,strain L-3 [6],0.6 mM and 0.4 mM
same,sulphide production (OD 480) 22 d,strain L-3 [6],1.1 mM and 1 mM and 0.8 mM
same,sulphide production (OD 480) 45 d,strain L-3 [6]; 45 d,2 mM and 1.1 mM and 1 mM
same,sulphide production (OD 480) 45 d,strain L-3 [7],1 mM and 1.2 mM and 1.4 mM
same,sulphide production (OD 480) 60 d,strain L-3 [7]; 60 d,0.6 mM and 0.7 mM and 1.1 mM
same,sulphide production (OD 480) 70 d,strain L-3 [7],0.9 mM and 1.2 mM and 1.4 mM
same,Count,strain L-3 [7],8.17*10^7 Cells/ml and 6.55*10^7 Cells/ml
same,OD 580,strain L-3 [7],0.2284 and 0.3479
same,H2S,strain L-3 [7],0.9 mM and 1.2 mM
same,ΔS tf-ti,strain L-3 [7],0.8 mM and 1.2 mM and 1.5 mM
CCCCC(=O)O [valerate],"thiosulphate, end of May 2005",[1]; listed as C5 fatty acid,11.86 mM and 9.39 mM
same,"thiosulphate, time 0",strain L-3 [2],13.95* mM
CCCCCCCCCCCCCCCCCC(=O)O [stearate],"thiosulphate, end of May 2005",[1]; listed as C18 fatty acid,10.55 mM and 7.05 mM
same,"thiosulphate, time 0",strain L-3 [2],14.64* mM
CCCCCCCCC(=O)O [nonanoate],"thiosulphate, end of May 2005",[1]; listed as C9 fatty acid,7.65 mM and 10.52 mM
"CC(CC(C)(C)C)CC(C)(C)CC(C)(C)C (stereo not shown) [HMN, 2,2,4,4,6,8,8-heptamethylnonane]",microbial growth with sulphate as electron acceptor,A. fulgidus [3],no microbial growth
same,"sulphide production during the subculture, on average",A. fulgidus [4],1.8 mM
same,sulphide production (OD 480) 8 d,A. fulgidus [4],0.6 mM and 1 mM and 0.7 mM
same,sulphide production (OD 480) 45 d,A. fulgidus [4]; 45 d,2 mM and 3.5 mM and 2.2 mM
same,ΔS tf-ti,A. fulgidus [4],1.4 mM and 2.5 mM and 1.5 mM
same,sulphide assay at the end of 75 days,[5],approximately 6 mM
same,Sulphide (mM)(480 nM),"[5]; after 7 weeks of incubation, with yeast extract (EL)",1.3 mM
same,sulphide production (OD 480) 10 d,Archaeoglobus fulgidus,0.8 mM and 1 mM
same,sulphide production (OD 480) 45 d,Archaeoglobus fulgidus,0.8 mM and 1.1 mM
same,sulphide production (OD 480) 60 d,Archaeoglobus fulgidus,0.9 mM and 0.7 mM and 1.3 mM
same,sulphide production (OD 480) 70 d,Archaeoglobus fulgidus; 70 d,1.3 mM and 0.9 mM and 1.2 mM
same,H2S,"Archaeoglobus fulgidus; choice of the inoculum for the subculture, tubes of the screening",1.3 mM and 0.9 mM and 1.2 mM
same,sulphide production (OD 480) 0 d,strain L-3 [6],0.3 mM and 0.2 mM
same,sulphide production (OD 480) 8 d,strain L-3 [6],0.6 mM and 0.5 mM and 0.4 mM
same,sulphide production (OD 480) 22 d,strain L-3 [6],1 mM and 0.9 mM and 0.6 mM
same,sulphide production (OD 480) 45 d,strain L-3 [7],0.7 mM and 0.9 mM
same,sulphide production (OD 480) 70 d,strain L-3 [7],1 mM and 1.4 mM and 1.9 mM
same,Count,strain L-3 [7],6.08*10^7 Cells/ml
same,OD 580,strain L-3 [7],0.5921 and 0.6696
same,H2S,strain L-3 [7],1 mM and 1.4 mM and 2 mM
same,ΔS tf-ti,strain L-3 [7],1 mM and 1.4 mM and 2 mM
